Reference: ChEMBL document CHEMBL1201862, “PubChem BioAssay data set” (2004)
Calls of active or inactive are those of the source.

Experiments:
[1] = target: Mitogen-activated protein kinase 10 (Homo sapiens, UniProt P53779); experiment: Dose response biochemical screening assay for inhibitors of c-Jun N-Terminal Kinase 3 (JNK3). [Related pubchem assays: 746 ]
[2] = growth inhibition of yeast DHODH-expressing 3D7 parasites – SYBR Green, dry powder samples, dose response (AID 1159570); type: functional, cell-based;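 note: parasite growth measured after 72 hours of compound exposure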
[3] = toxicity to human HepG2 hepatoma cells – cell-based, plate reader, dry powder samples, cytotoxicity control, dose response (AID 1159569); type: functional;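 note: inhibitor potency with signal falling toward the positive control level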
[4] = Dd2 parasite growth inhibition in erythrocytes – SYBR Green, dry powder samples, set 9, dose response (AID 1159568); type: functional, cell-based
[5] = P. falciparum Dd2 growth inhibitors, dose response, SYBR Green, cherry-picked samples (AID 1159567); type: functional, cell-based
[6] = Dd2 malaria parasite growth inhibition potency – SYBR Green, dry powder samples, dose response (AID 1159566); type: functional, cell-based;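 note: potency for growth inhibition with lower SYBR green DNA signal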
[7] = growth inhibition of PfATP4-mutant resistant parasites – NITD609-resistant line, SYBR Green, dry powder, dose response (AID 1159571); type: functional, cell-based;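 note: parasites synchronized at ring stage by sorbitol before testing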
[8] = target: NAD-dependent protein deacylase sirtuin-5, mitochondrial (Homo sapiens, UniProt Q9NXA8); experiment: sirtuin-5 deacylation blockers, concentration series – biochemical, fluorescence imaging, cherry-pick, set 5, dose response (AID 720591);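 note: desuccinylation of succinyl peptide AMC substrate read as fluorescence after trypsin release; potency of inhibitors that lower fluorescence and may act on trypsin instead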
Estrogen receptor = target: T1, Estrogen receptor (Homo sapiens, UniProt P03372);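 note: potency for inhibiting coactivator peptide recruitment to the receptor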
T1 sequence (P03372 whole entry): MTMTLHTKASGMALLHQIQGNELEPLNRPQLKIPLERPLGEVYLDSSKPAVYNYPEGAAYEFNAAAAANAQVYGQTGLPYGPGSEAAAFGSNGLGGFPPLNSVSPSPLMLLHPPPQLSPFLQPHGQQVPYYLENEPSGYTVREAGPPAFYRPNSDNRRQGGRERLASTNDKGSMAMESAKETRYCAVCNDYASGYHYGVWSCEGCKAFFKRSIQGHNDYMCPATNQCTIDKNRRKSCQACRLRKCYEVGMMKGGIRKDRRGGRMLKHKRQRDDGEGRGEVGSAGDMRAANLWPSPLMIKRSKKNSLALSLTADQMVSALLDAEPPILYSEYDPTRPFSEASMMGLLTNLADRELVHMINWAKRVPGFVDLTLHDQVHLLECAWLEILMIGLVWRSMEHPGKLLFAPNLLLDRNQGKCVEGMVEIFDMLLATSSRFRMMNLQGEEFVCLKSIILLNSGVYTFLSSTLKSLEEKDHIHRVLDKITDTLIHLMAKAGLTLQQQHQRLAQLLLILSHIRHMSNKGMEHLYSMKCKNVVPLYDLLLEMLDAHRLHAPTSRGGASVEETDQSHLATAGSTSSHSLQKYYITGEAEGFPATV

Estrogen receptor beta [9] = target: T2, Estrogen receptor beta (Homo sapiens, UniProt Q92731);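 note: recombinant ER-beta bound to coactivator SRC1 peptide in presence of estradiol agonist; inhibitors block coactivator peptide binding and lower the FRET signal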
Estrogen receptor beta [10] = target: T2, Estrogen receptor beta; experiment: blockers of SRC-3 recruitment to ERβ – biochemical, ELISA, streptavidin-HRP readout, orthogonal assay, confirmation (AID 1060)
Kallikrein-7 = Kallikrein-7 (Homo sapiens, UniProt P49862); experiment: Fluorescence Intensity-based biochemical primary high throughput dose response assay to identify activators of kallikrein-7 (K7) zymogen.
[11] = viability loss in HepG2 hepatoma cells – cell-based, cherry-picks, set 5, cytotoxicity control, dose response (AID 1053118); type: functional
[12] = toxicity to human hepatoma HepG2 cells – cell-based, cherry-picked samples, cytotoxicity control, dose response (AID 1159577); type: functional
Major prion protein = Major prion protein (Homo sapiens, UniProt P04156); type: functional, cell-based
[13] = viability inhibitors of stage V gametocytes – luminescence, dose response (AID 1117278); type: functional, cell-based;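 note: gametocytes exposed to compound for 24 hours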
[14] = viability loss in human Jurkat cells – cell-based, luminescence, cytotoxicity control for P. falciparum gametocyte viability project, dose response (AID 1117277); type: functional;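 note: potency reflects loss of cellular ATP meaning fewer viable cells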
[15] = target: RNA-editing ligase 1, mitochondrial (Trypanosoma brucei brucei, UniProt P86926); experiment: inhibition of trypanosome RNA editing ligase – biochemical, fluorescence, Trypanosoma brucei, dose response (AID 1117295); type: functional

With `COC(=O)c1c(-c2cccs2)csc1NC(=O)CN1CCOCC1` the IC50 [1] was 55.7 µM (not active).
For `COc1ccc2c3c(n(C)c2c1)[C@H](CO)N(Cc1ccc2c(c1)OCO2)CC31CN(C(=O)c2ccc3c(c2)OCO3)C1`, the AC50 [2] was 0.141 µM (active), the AC50 [3] was > 100 µM (inactive) and the AC50 [4] was 0.236 µM (active). The AC50 [5] was 0.54 µM (active), the AC50 [6] was 0.13 µM (active) and the AC50 [7] was 0.147 µM (active).
With `CCCCC[C@H]1CN(Cc2ccccc2)C(=O)[C@@H]1CC(=O)NCc1ccccc1` the AC50 [8] was 14.9 µM (active).
In the case of `Cc1occc1-c1nnc(SCc2cc(=O)n3cc(Br)ccc3n2)n1C`, the IC50 (Estrogen receptor) is reported as > 50 µM (not active), the IC50 (Estrogen receptor beta [9]) is reported as > 50 µM (not active) and the IC50 (Estrogen receptor beta [10]) is reported as 0.468 µM (not active).
With `CN1CCN(C(=O)c2cc3nc(-c4ccco4)cc(C(F)(F)F)n3n2)CC1` the EC50 (Kallikrein-7) was 11.3 µM (inactive).
For `C[C@H]1CN([C@@H](C)CO)C(=O)c2cc(NC(=O)CCCN(C)C)ccc2O[C@H]1CN(C)Cc1ccc(-c2ccccc2)cc1`, the AC50 [11] was 44.9 µM (active).
In the case of `OC[C@@H]1Nc2ccc(C#Cc3ccc(F)cc3)cc2[C@H]2NCC[C@@H]12`, the AC50 [2] is reported as 1.15 µM (active), the AC50 [3] is reported as 32.6 µM (active) and the AC50 [5] is reported as 2.36 µM (active). The AC50 [6] was 0.822 µM (active), the AC50 [12] was 25.1 µM (active) and the AC50 [7] was 1.42 µM (active).
In the case of `Cc1cc(C)c2nc(SC3CCOC3=O)cc(C)c2c1` (stereo not drawn), the IC50 (Major prion protein) is reported as 3.66 µM (active) and the IC50 (cells) is reported as > 138 µM (inactive).
In the case of `C[C@@H]1CN([C@H](C)CO)C(=O)c2cc(N(C)C)ccc2O[C@@H](C)CCCCO[C@H]1CN(C)S(=O)(=O)c1ccc(F)cc1`, the AC50 [4] is reported as 10.5 µM (active).
For `Cc1ccc2nc(N3C(=O)C(O)=C(C(=O)c4ccc(C)o4)C3c3ccc(O)cc3)sc2c1` (stereo not drawn), the AC50 [8] was 15.1 µM (active).
For `CCOC(=O)CSc1nc(-c2ccccc2)nc2ccc(F)cc12`, the IC50 (Major prion protein) was 1.97 µM (active) and the IC50 (cells) was > 138 µM (inactive).
In the case of `Cc1nnc(NC(=O)c2ccc(S(=O)(=O)N3CCc4ccccc4C3)cc2)o1`, the IC50 [13] is reported as > 109 µM (inactive) and the IC50 [14] is reported as 80.6 µM (inactive).
With `COC(=O)C1=C(C)N(Cc2ccc(C(F)(F)F)cc2)C(NCc2ccccc2C(F)(F)F)=NC1c1ccc(F)cc1` (stereo not drawn) the IC50 [15] was > 96.6 µM (inactive).
